{"source": "patent US20250195547A1", "about": "“COMPOSITIONS AND METHODS OF TREATMENT FOR CONGENITAL DIARRHEAL DISORDER” (VANDERBILT UNIVERSITY, priority 2022, published 2025)", "key": {"human LPAR5": {"biological_target": "human LPAR5 (Homo sapiens, UniProt Q9H1C0)", "sequence (Q9H1C0 whole entry)": "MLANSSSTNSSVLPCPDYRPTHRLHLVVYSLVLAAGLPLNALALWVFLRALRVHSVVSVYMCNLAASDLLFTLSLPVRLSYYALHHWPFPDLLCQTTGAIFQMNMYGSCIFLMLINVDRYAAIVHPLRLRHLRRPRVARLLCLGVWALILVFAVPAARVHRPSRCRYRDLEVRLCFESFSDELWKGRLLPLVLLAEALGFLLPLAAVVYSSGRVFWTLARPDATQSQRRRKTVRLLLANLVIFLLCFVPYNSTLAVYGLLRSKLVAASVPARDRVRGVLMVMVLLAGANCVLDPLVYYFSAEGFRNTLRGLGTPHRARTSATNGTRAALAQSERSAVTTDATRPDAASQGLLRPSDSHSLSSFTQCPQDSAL", "settings": "cited from earlier work"}, "Myo5bΔINT enteroids": {"tested_on": "Myo5bΔINT enteroids", "assay": "Bulk transcriptional analysis (RNA-seq) in MYO5B deficient mouse enteroids", "format": "cell-based", "settings": "100 nM", "method": "Enteroids were generated from jejunal crypts of adult VilCre^ERT2; Myo5b^flox/flox and VilCre^ERT2; Myo5b^flox/G519R mice (Burman & Momoh CMGH) without tamoxifen treatment and passaged twice with mechanical breakdown. One day after the second passage, 1 μM 4-OH-tamoxifen (SML1666, Sigma) was added into the IntestiCult Organoid Growth Medium (Mouse, Stem Cell Technology) and incubated for 24 hours to induce Cre recombinase. After the incubation with 4-OH-tamoxifen (induced KO or G519R) or the vehicle, 100% ethanol (Control), the medium was replaced with the modified Minigut medium (Mahe et al., 2013) containing 5% Noggin conditioned medium and 5% R-spondin conditioned medium (Vanderbilt Organoid Core) to withdraw Wnt and EGF for enhancing cell differentiation (Kaji JCI Insight). Some iKO enteroids were incubated with 100 nM Compound-1 for 2 days in differentiation conditions.\nFollowing differentiation, enteroids were placed in Organoid Harvesting Solution (3700-100-01; Cultrex) for 1 hr at 4° C. Enteroids were washed with PBS and centrifuged. Enteroid pellets were immersed in TRIzol reagent (15596026; Invitrogen) supplemented with glycogen (G1767; Sigma Aldrich) and stored at −20° C. Total RNA was extracted from enteroids following the manufacturer's instructions. RNA-sequencing with 4 samples per group and differential expressing gene analysis were performed in Novogene."}, "human LPAR3": {"biological_target": "T1, human LPAR3 (Homo sapiens, UniProt Q9UBY5)", "T1 sequence (Q9UBY5 1-353)": "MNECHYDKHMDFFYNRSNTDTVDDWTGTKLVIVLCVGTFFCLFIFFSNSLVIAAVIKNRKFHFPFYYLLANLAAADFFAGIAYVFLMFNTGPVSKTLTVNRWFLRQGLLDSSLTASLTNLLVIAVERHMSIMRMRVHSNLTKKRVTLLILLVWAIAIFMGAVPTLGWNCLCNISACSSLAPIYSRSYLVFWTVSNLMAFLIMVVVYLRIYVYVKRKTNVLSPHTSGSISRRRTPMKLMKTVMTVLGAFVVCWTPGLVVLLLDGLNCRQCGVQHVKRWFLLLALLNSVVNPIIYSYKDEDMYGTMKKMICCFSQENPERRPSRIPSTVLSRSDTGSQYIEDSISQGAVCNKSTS", "settings": "cited from earlier work"}, "[1]": {"tested_on": "MYO5B(P663L) pig enteroids", "assay": "Tuft cell differentiation in pig MVID model enteroids", "format": "cell-based", "settings": "100 nM daily in ODM, 5 days, vs vehicle (PBS)", "method": "Pig enteroids were expanded in Matrigel (Corning) immersed in IntestiCult Organoid Growth Medium (Human, OGM, Stem Cell Technology). Organoid growth was assessed in 96-well plate and continuously imaged whole wells using a JuLi™ Stage (NanoEn Tek Inc., Waltham, MA). Organoid perimeter was measured by using FIJI, and organoid forming rate was calculated as sphere numbers per plated cell numbers 7 days after the passaging. N=7-9 wells from each genotype. In a different set of culture, tuft cells were differentiated in Organoid Differentiation Medium (ODM, Stem Cell Technology) for 5 days, following after 2 days culture in OGM after passaging. MYO5B(P663L) enteroids were incubated with 100 nM Compound-1 or vehicle (PBS) in ODM.\nOrganoids were fixed with 10% NBF for 30 min in Matrigel domes, rinsed with cold PBS containing 0.1% FBS and centrifuged to remove Matrigel. Fixed organoids were blocked with 5% normal donkey serum in PBS containing 0.3% Triton X-100 for 2 hours and incubated with the pGirdin (1:100) or POU2F3 (1:200) antibody diluted with the blocking solution for 2 days at 4° C. After rinsing in PBS with Triton X-100, donkey anti-rabbit Cy3 antibody (2.5 μg/ml), Alexa Fluor 488 phalloidin (1:400, A12379, Thermo Fisher), and Hoechst 33342 (2 mM) were applied for 2 hr. […]"}, "[2]": {"assay": "Plasma level after bolus intraperitoneal injection in wild type adult mice", "format": "in vivo, mouse"}, "Myo5bΔINT mice": {"tested_on": "Myo5bΔINT mice", "assay": "Daily LPAR agonist treatment of tamoxifen-induced Myo5bΔINT mice (MVID model), intestinal histology and immunostaining", "format": "in vivo, mouse", "settings": "for Hmgcs2 protein expression in jejunal epithelial cells / apical localization of transporters NHE3 and SGLT1: immunostaining; for Hmgcs2 protein expression in jejunal epithelial cells: once daily ip for 4 days; for tuft cell differentiation (tuft cell population) in Myo5bΔINT intestine: once a day for 4 days, LPA 3 mg/kg, Compound-1 1 mg/kg, UCM-05194 10 mg/kg, GRI977143 3 mg/kg; for apical localization of transporters NHE3 and SGLT1: small intestine, daily treatment", "method": "All animal studies were performed with approval from the Institutional Animal Care and Use Committee of Vanderbilt University Medical Center (M2000104). At the 8-10 week of age, Myo5bΔINT mice and littermate controls (VilCre^ERT2; Myo5b^+/flox and Myo5b^flox/flox) received a single dose of tamoxifen (100 mg/kg) by intraperitoneal (IP) injection (day 0) (Weis et al.). […] Compound-1 was dissolved in PBS, and UCM-05194 was dissolved in Captisol solution. Body weight changes and diarrhea symptoms were investigated daily. On day 4, mice were euthanized and the duodenum (0-8 cm from the pyloric ring), jejunum (8 cm following the duodenum), ileum (distal 8 cm from the ileocecal junction), and colon were collected for pathological assessment as previously reported (Kaji et al.).\nImmunofluorescence staining and imaging were performed as previously reported (Kaji, JCI Insight). Four-μm-thin sections were deparaffinized and rehydrated before performing antigen retrieval using 10 mM sodium citrate buffer, contained 0.05% Tween 20 (pH 6), in a pressure cooker for 15 minutes. After cooling down on ice, slides were rinsed in PBS and blocked with protein block serum-free (Dako) for 1 hour at r/t or overnight at 4° C. The primary antibodies against NHE3 (1:200), SGLT1 (0.5 μg/ml) (Kaji et al., 2020), DCLK1 (AF647-conjugated, 1:2000), KRT19 (1:250), CD3, HMGCS2 (1:50), or Actg1 (1:100) were diluted in Dako diluent in background reducing compound (S3022) and incubated on sections overnight at 4° C. After rinsing in 0.1 M PBS, the slides were incubated with the corresponding secondary antibodies conjugated with fluorescence (Jackson Laboratory) for 1 hour. Slides were rinsed in 0.1 M PBS and counterstained with Hoechst 33342 (4 mM, Thermo Fisher Scientific, Waltham, MA) in PBS. The stained slides were cover-slipped with ProLong Gold Antifade Reagent (P36934, Thermo Fisher). Whole slide images were scanned by a Versa imager 200 with a 20× objective (Leica Biosystems, Buffalo Grove, IL) in the Vanderbilt Digital Histology Shared Resource (DHSR). Some immunofluorescence images were taken by using a Zeiss Axio Imager M2 with ApoTome (Carl Zeiss Microscopy, LLC, White Plains NY).\nThe DIA code to quantify the tuft cell populations was developed at the DHSR on Python platform as described previously (Kaji 2021)."}, "Solubility / stability": {"assay": "Solubility / stability", "format": "physicochemical", "settings": "as a sodium salt"}, "[3]": {"settings": "natural LPA; background statement; cited from earlier work"}}, "note": "pEC50: −log10 of the molar value. Entries after “also recorded” stand apart in the source; their conditions may differ."}
{"smiles": "CCCCCCCCCCCCCCCCOC(CCP([O-])(O)=S)COC.[Na+]", "note": "(stereo not shown) [Compound-1]", "values": [{"measurement": "pEC50", "setting": "human LPAR5", "value": 9.59}, {"measurement": "Nox1 expression decreased by MYO5B loss", "setting": "Myo5bΔINT enteroids; 2 days", "value": "reversed"}, {"measurement": "inflammation- and infection-related genes (Nlrp1b, Ldhb, Hspg2, Trim30) increased by MYO5B loss", "setting": "Myo5bΔINT enteroids; 2 days during differentiation", "value": "significantly reversed"}, {"measurement": "Hmgcs2 expression in enteroids with and without Compound-1", "setting": "Myo5bΔINT enteroids; 2 days, control vs MYO5B deficient enteroids", "value": "comparable"}, {"measurement": "effect on human LPAR3", "setting": "human LPAR3", "value": "agonistic effect"}, {"measurement": "tuft cell numbers in MYO5B(P663L) enteroids", "setting": "[1]", "value": "significantly increased"}, {"measurement": "Compound in plasma", "setting": "[2]; 1 hour after bolus ip injection 10 mg/kg", "value": "detected"}, {"measurement": "plasma concentration (disappeared)", "setting": "[2]; within 6 hours after bolus ip injection 10 mg/kg", "value": "< 10", "unit": "ng/mL"}, {"measurement": "Intestinal villus/crypt ratio", "setting": "Myo5bΔINT mice; Compound-1 1 mg/kg daily, intraperitoneal, 4 days, vs vehicle", "value": "significantly improved"}, {"measurement": "increase of villus/crypt ratio in the small intestine", "setting": "Myo5bΔINT mice; daily Compound-1 treatment", "value": 150, "unit": "%"}, {"measurement": "effect of subcutaneous tablet insertion (continuous delivery)", "setting": "Myo5bΔINT mice; high dose 2 mg/mouse per tablet", "value": "no consistent effect"}, {"measurement": "Hmgcs2 protein expression in jejunal epithelial cells", "setting": "Myo5bΔINT mice", "value": "remarkably upregulated"}, {"measurement": "effect of subcutaneous tablet insertion (continuous delivery)", "setting": "Myo5bΔINT mice; low dose 0.2 mg/mouse per tablet", "value": "no consistent effect"}, {"measurement": "tuft cell differentiation (tuft cell population) in Myo5bΔINT intestine", "setting": "Myo5bΔINT mice", "value": "reversed; also recorded: significantly increased"}, {"measurement": "apical localization of transporters NHE3 and SGLT1", "setting": "Myo5bΔINT mice", "value": "partially recovered; also recorded: partially reversed to normal"}, {"measurement": "body weight loss", "setting": "Myo5bΔINT mice; within 4 days, similar to vehicle-treated group", "value": "approximately 14%"}, {"measurement": "solubility in water", "setting": "Solubility / stability", "value": "highly soluble"}]}
{"smiles": "O=C(CCCc1ccccc1)O[C@H](CBr)COP(=O)(O)O", "note": "[UCM-05194, reference compound]", "values": [{"measurement": "intestinal histology", "setting": "Myo5bΔINT mice; once a day for 4 days after tamoxifen", "value": "did not significantly alter"}, {"measurement": "tuft cell differentiation (tuft cell population) in Myo5bΔINT intestine", "setting": "Myo5bΔINT mice", "value": "no significant effect"}]}
{"smiles": "CCCCCCCC/C=C\\CCCCCCCC(=O)OCC(O)COP(=O)(O)O", "note": "(stereo not shown) [LPA, 18:1 1-oleoyl-Lyso PA, reference compound]", "values": [{"measurement": "fatty acid oxidation or lipogenesis pathways (transcription)", "setting": "Myo5bΔINT mice; RNA-seq of jejunal epithelial cells, in vivo LPA (18:1)", "value": "did not reverse"}, {"measurement": "transcription of Hmgcs2 in jejunal epithelial cells", "setting": "Myo5bΔINT mice; RNA-seq, vs vehicle-treated Myo5bΔINT or healthy littermate mice", "value": "significantly upregulated"}, {"measurement": "Hmgcs2 protein expression in jejunal epithelial cells", "setting": "Myo5bΔINT mice", "value": "further increased"}, {"measurement": "tuft cell differentiation (tuft cell population) in Myo5bΔINT intestine", "setting": "Myo5bΔINT mice", "value": "reversed"}, {"measurement": "apical localization of transporters NHE3 and SGLT1", "setting": "Myo5bΔINT mice", "value": "similarly improved"}, {"measurement": "solubility and stability", "setting": "[3]", "value": "poor"}]}
